Measurements: ChEMBL document CHEMBL3603834, “Syntheses and Biological Evaluation of Costunolide, Parthenolide, and Their Fluorinated Analogues” (J Med Chem, 2015)

Tests used:
[1] = Cytotoxicity against human KG1a cells; assay type: functional, cell-based; settings: KG-1a
C6 = assay: Cytotoxicity against rat C6 cells; assay type: functional, cell-based
HL-60 [2] = assay: Cytotoxicity against human HL60 cells; assay type: functional, cell-based
HL-60 [3] = assay: Cytotoxicity against human HL60/A cells; assay type: functional, cell-based
[4] = Chemical stability of the compound in p-toluenesulfonic acid in dichloromethane after 48 hrs; assay type: physicochemical
[5] = Half life in human liver microsomes by HPLC-MS/MS analysis in presence of NADPH; assay type: ADME
[6] = Half life in rat plasma; assay type: ADME, cell-free
[7] = Metabolic stability in rat plasma assessed as compound degradation after 420 mins; assay type: ADME, cell-free; settings: read-out: Drug degradation

Stability [4] | half-life [5] | half-life [6] | metabolised at 7 h [7] | SMILES | IC50 [1] | IC50 (C6) | IC50 (HL-60 [2]) | IC50 (HL-60 [3])
Stable |  |  |  | C=C1C(=O)O[C@H]2[C@H]1CC/C(CF)=C\CC[C@@]1(C)O[C@@H]21 | 2.9 µM | 2.8 µM | 2 µM | 1.5 µM
Stable |  |  |  | C=C1CC[C@H]2C(=C)C(=O)O[C@@H]2[C@@H]2O[C@]2(C)CCC1F (some centres undefined) | 8.6 µM | 11.3 µM | 11.9 µM | 9.2 µM
Stable |  |  |  | C=C1C(=O)O[C@H]2[C@H]1CC/C(C(F)F)=C\CC[C@@]1(C)O[C@@H]21 | 1.8 µM | 3.4 µM | 2 µM | 2.1 µM
Stable | 1.43 h | 0.338 h |  | C=C1C(=O)O[C@H]2[C@H]1CC/C(C(F)(F)F)=C\CC[C@@]1(C)O[C@@H]21 | 2 µM | 3 µM | 2.1 µM | 2 µM
 |  |  |  | C=C1C(=O)O[C@@H]2/C=C(\C)CC/C=C(/C(F)(F)F)CC[C@@H]12 | 5.1 µM | 5.4 µM | 5 µM | 4.9 µM
Unstable | 1.39 h | 0.278 h |  | C=C1C(=O)O[C@@H]2C3O[C@]3(C)CC/C=C(\C)CC[C@@H]12 (some centres undefined) | 2.3 µM | 2.5 µM | 2 µM | 2 µM
 |  | > 7 h | 20% | C/C1=C\CC[C@@]2(C)O[C@H]2[C@H]2OC(=O)[C@@H](C)[C@@H]2CC1 |  |  |  | 
 |  |  |  | C=C1C(=O)O[C@@H]2/C=C(\C)CC/C=C(\C)CC[C@@H]12 [COSTUNOLIDE] | 4.1 µM | 4.1 µM | 2.1 µM | 5.9 µM
